According to ChEMBL document CHEMBL4476873, “Substituted urea depsipeptide analogs as activators of the clpp endopeptidase” (2018):
Values after ≈ are worked out from the molar mass of the structure shown.

Tests used:
[1] = tested on: Staphylococcus aureus; test: Antimicrobial activity against Staphylococcus aureus USA300 incubated overnight under aerobic condition by microbroth dilution method; format: functional
[2] = tested on: Staphylococcus aureus; test: Antimicrobial activity against Staphylococcus aureus ATCC 29213 incubated overnight under aerobic condition by microbroth dilution method; format: functional
[3] = tested on: Staphylococcus aureus; test: Antimicrobial activity against Staphylococcus aureus USA300 deficient in ClpP incubated overnight under aerobic condition by microbroth dilution method; format: functional
[4] = tested on: Bacillus subtilis; test: Antimicrobial activity against Bacillus subtilis ATCC 23857 incubated overnight under aerobic condition by microbroth dilution method; format: functional
[5] = tested on: Streptococcus pneumoniae; test: Antimicrobial activity against Streptococcus pneumoniae R6 incubated overnight under aerobic condition by microbroth dilution method; format: functional
[6] = tested on: Streptococcus pyogenes; test: Antimicrobial activity against Streptococcus pyogenes ATCC 700294 incubated overnight under aerobic condition by microbroth dilution method; format: functional
[7] = tested on: Vero; test: Cytotoxicity in African green monkey Vero cells assessed as reduction in cell viability incubated for 72 hrs by cell-titer-Glo luminescent cell viability assay; format: cell-based; details: Chlorocebus sabaeus
[8] = molecular target: T1, ATP-dependent Clp protease proteolytic subunit (Staphylococcus aureus (strain NCTC 8325), UniProt Q2G036); test: Displacement of ADEP2591 from Staphylococcus aureus ClpP expressed in Escherichia coli BL21 (DE3) incubated for 120 mins by fluorescence polarization assay
T1 sequence (Q2G036 whole entry): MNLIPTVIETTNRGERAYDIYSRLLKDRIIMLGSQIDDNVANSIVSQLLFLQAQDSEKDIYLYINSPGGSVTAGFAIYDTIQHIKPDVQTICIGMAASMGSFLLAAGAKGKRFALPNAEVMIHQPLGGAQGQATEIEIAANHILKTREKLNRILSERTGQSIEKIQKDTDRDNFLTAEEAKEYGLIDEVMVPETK

[9] = tested on: Staphylococcus aureus; test: Antimicrobial activity against Staphylococcus aureus NRS70 incubated overnight under aerobic condition by microbroth dilution method; format: functional
[10] = tested on: Enterococcus faecalis; test: Antimicrobial activity against Enterococcus faecalis ATCC 33186 incubated overnight under aerobic condition by microbroth dilution method; format: functional

Structure (SMILES) | MIC [1] | MIC [2] | MIC [3] | also measured
Cc1ccc(NC(=O)N[C@@H](Cc2cc(F)cc(F)c2)C(=O)N[C@H]2COC(=O)[C@@H]3C[C@@H](F)CN3C(=O)[C@H](C)NC(=O)[C@@H]3CCCCN3C(=O)[C@@H]3CCCN3C2=O)cc1 | – | – | > 200 µM | –
Cc1ccc(NC(=O)N[C@@H](Cc2cc(F)cc(F)c2)C(=O)N[C@@H]2C(=O)N3CCC[C@H]3C(=O)N(C)[C@@H]([C@H](C)O)C(=O)N[C@@H](C)C(=O)N3C[C@H](C)C[C@H]3C(=O)O[C@H]2C)cc1 | 0.1 µM (≈ 0.0812 µg/mL) | 0.05 µM (≈ 0.0406 µg/mL) | – | MIC [4]: 0.05 µM (≈ 0.0406 µg/mL); MIC [5]: 0.02 µM (≈ 0.0162 µg/mL); MIC [6]: 0.1 µM (≈ 0.0812 µg/mL)
C[C@@H]1C[C@H]2C(=O)O[C@@H](C)[C@H](NC(=O)[C@H](Cc3cc(F)cc(F)c3)NC(=O)Nc3ccc(OC(F)(F)F)cc3)C(=O)N3CCC[C@H]3C(=O)N(C)[C@@H]([C@H](C)O)C(=O)N[C@@H](C)C(=O)N2C1 | – | – | – | IC50 [7]: 23.9 µM; IC50 [8]: 7.53 µM
C[C@H]1C[C@H]2C(=O)O[C@@H](C)[C@H](NC(=O)[C@H](Cc3cc(F)cc(F)c3)NC(=O)Nc3ccc(OC(F)(F)F)cc3)C(=O)N3CCC[C@H]3C(=O)N(C)[C@@H]([C@H](C)O)C(=O)N[C@@H](C)C(=O)N2C1 | – | – | – | IC50 [7]: 25.4 µM
COc1cccc(NC(=O)N[C@@H](Cc2ccccc2)C(=O)N[C@H]2COC(=O)[C@@H]3C[C@@H](C)CN3C(=O)[C@H](C)NC(=O)[C@@H]3CCCCN3C(=O)[C@@H]3CCCN3C2=O)c1 | – | 3.13 µM (≈ 2.42 µg/mL) | – | MIC [9]: 3.13 µM (≈ 2.42 µg/mL)
C[C@H]1C[C@H]2C(=O)O[C@@H](C)[C@H](NC(=O)[C@H](Cc3cc(F)cc(F)c3)NC(=O)Nc3ccc(OC(F)(F)F)cc3)C(=O)N3CCC[C@H]3C(=O)N(C)[C@@H](C)C(=O)N[C@@H](C)C(=O)N2C1 | 0.1 µM (≈ 0.0852 µg/mL) | 0.05 µM (≈ 0.0426 µg/mL) | 25 µM (≈ 21.3 µg/mL) | MIC [9]: 0.05 µM (≈ 0.0426 µg/mL); MIC [4]: 0.01 µM (≈ 0.00852 µg/mL); MIC [6]: 0.23 µM (≈ 0.196 µg/mL)
CN(C)[C@@H]1C(O)=C(C(N)=O)C(=O)[C@@]2(O)C(O)=C3C(=O)c4c(O)cccc4[C@@](C)(O)[C@H]3C[C@@H]12 [TETRACYCLINE] | – | – | – | MIC [10]: 0.05 µM (≈ 0.0222 µg/mL); MIC [4]: 1.6 µM (≈ 0.711 µg/mL)
NC[C@H]1O[C@H](O[C@H]2[C@H](O)[C@@H](O[C@H]3O[C@H](CO)[C@@H](O)[C@H](N)[C@H]3O)[C@H](N)C[C@@H]2N)[C@H](O)[C@@H](O)[C@@H]1O [KANAMYCIN] | – | 1.56 µM (≈ 0.756 µg/mL) | – | MIC [4]: 0.1 µM (≈ 0.0485 µg/mL); MIC [6]: 12.5 µM (≈ 6.06 µg/mL)
C[C@@H]1C[C@H]2C(=O)OC[C@H](NC(=O)[C@H](Cc3ccccc3)NC(=O)Nc3ccc(OC(F)(F)F)cc3)C(=O)N3CCC[C@H]3C(=O)N3CCCC[C@H]3C(=O)N[C@@H](C)C(=O)N2C1 | – | – | – | MIC [6]: 0.1 µM (≈ 0.0828 µg/mL)

Continued, in another order:

MIC [1] | MIC [2] | MIC [3] | Structure (SMILES) | also measured
3.1 µM (≈ 2.55 µg/mL) | 3.1 µM (≈ 2.55 µg/mL) | – | C[C@H]1C[C@H]2C(=O)OC[C@H](NC(=O)[C@H](Cc3cc(F)cc(F)c3)NC(=O)Nc3ccc4c(c3)OCO4)C(=O)N3CCC[C@H]3C(=O)N3CCCC[C@H]3C(=O)N[C@@H](C)C(=O)N2C1 | –
0.1 µM (≈ 0.0796 µg/mL) | 0.1 µM (≈ 0.0796 µg/mL) | – | CCc1ccc(NC(=O)N[C@@H](Cc2cc(F)cc(F)c2)C(=O)N[C@@H]2C(=O)N3CCC[C@H]3C(=O)N(C)[C@@H](C)C(=O)N[C@@H](C)C(=O)N3C[C@@H](C)C[C@H]3C(=O)O[C@H]2C)cc1 | –
– | – | 100 µM (≈ 79.4 µg/mL) | Cc1ccc(NC(=O)N[C@@H](Cc2cc(F)cc(F)c2)C(=O)N[C@H]2COC(=O)[C@@H]3C[C@H](C)CN3C(=O)[C@H](C)NC(=O)[C@@H]3CCCCN3C(=O)[C@@H]3CCCN3C2=O)cc1 | –
– | – | 100 µM (≈ 82.6 µg/mL) | CCc1ccc(NC(=O)N[C@@H](Cc2cc(F)cc(F)c2)C(=O)N[C@@H]2C(=O)N3CCC[C@H]3C(=O)N(C)[C@@H]([C@H](C)O)C(=O)N[C@@H](C)C(=O)N3C[C@@H](C)C[C@H]3C(=O)O[C@H]2C)cc1 | IC50 [7]: 33.8 µM
0.2 µM (≈ 0.156 µg/mL) | 0.2 µM (≈ 0.156 µg/mL) | 100 µM (≈ 78.2 µg/mL) | CCc1ccc(NC(=O)N[C@@H](Cc2cc(F)cc(F)c2)C(=O)N[C@@H]2C(=O)N3CCC[C@H]3C(=O)N(C)[C@@H](C)C(=O)N[C@@H](C)C(=O)N3CCC[C@H]3C(=O)O[C@H]2C)cc1 | MIC [9]: 0.2 µM (≈ 0.156 µg/mL)
– | – | > 200 µM | Cc1ccc(NC(=O)N[C@@H](Cc2ccccc2)C(=O)N[C@H]2COC(=O)[C@@H]3C[C@H](C)CN3C(=O)[C@H](C)NC(=O)[C@@H]3CCCCN3C(=O)[C@@H]3CCCN3C2=O)cc1 | –
50 µM (≈ 16.6 µg/mL) | 50 µM (≈ 16.6 µg/mL) | – | CN[C@@H]1[C@H](O)[C@H](NC)[C@H]2O[C@@]3(O)C(=O)C[C@@H](C)O[C@H]3O[C@@H]2[C@H]1O [SPECTINOMYCIN] | –
